# Source: patent publication US12258328B2, “6-membered heteroaryl-containing aminopyridine compounds as EGFR inhibitors” (YUHAN CORPORATION, priority 2021, dated 2025)
# Like-named read-outs stand apart in the source and are kept apart here.
# Assays:
# EGFR del19/T790M/C797S = EGFR del19/T790M/C797S (Homo sapiens, UniProt P00533, C797S/DEL746-750/T790M); assay: Biochemical EGFR kinase assay (Lance Ultra TR-FRET), triple mutant del19/T790M/C797S
# Method: (§1) Biochemical EGFR kinase assays were conducted using Lance Ultra time-resolved fluorescence resonance energy transfer (TR-FRET) technology from Perkin-Elmer. Compounds of the invention were initially diluted to 20 mM in 100% DMSO for storage and made into kinase buffer solution to create a compound concentration ranging from 0.003 μM and 10 μM.
# (§2) Each kinase reactions were incubated at room temperature for 1 hour and then stopped by the addition of 4 μL of stop solution (10 mM EDTA). The specific Europium-labeled-anti-phosphopeptide antibody (PerkinElmer, AD0069) diluted in LANCE detection buffer was then added to a final concentration of 2 nM. After 60 minutes incubation at room temperature the LANCE signal was measured on an EnVision Multilabel Reader (Perkin-Elmer). Excitation wavelength was set at 320 nm and emission monitored at 615 nm (donor) and 665 nm (acceptor). The IC50 values were determined using GraphPad prism software (GraphPad Software, Inc., San Diego, CA, USA).
# EGFR L858R/T790M/C797S = EGFR L858R/T790M/C797S (Homo sapiens, UniProt P00533, C797S/L858R/T790M); assay: Biochemical EGFR kinase assay (Lance Ultra TR-FRET), triple mutant L858R/T790M/C797S
# Sequence of EGFR L858R/T790M/C797S (P00533 25-1210 T790M/C797S/L858R): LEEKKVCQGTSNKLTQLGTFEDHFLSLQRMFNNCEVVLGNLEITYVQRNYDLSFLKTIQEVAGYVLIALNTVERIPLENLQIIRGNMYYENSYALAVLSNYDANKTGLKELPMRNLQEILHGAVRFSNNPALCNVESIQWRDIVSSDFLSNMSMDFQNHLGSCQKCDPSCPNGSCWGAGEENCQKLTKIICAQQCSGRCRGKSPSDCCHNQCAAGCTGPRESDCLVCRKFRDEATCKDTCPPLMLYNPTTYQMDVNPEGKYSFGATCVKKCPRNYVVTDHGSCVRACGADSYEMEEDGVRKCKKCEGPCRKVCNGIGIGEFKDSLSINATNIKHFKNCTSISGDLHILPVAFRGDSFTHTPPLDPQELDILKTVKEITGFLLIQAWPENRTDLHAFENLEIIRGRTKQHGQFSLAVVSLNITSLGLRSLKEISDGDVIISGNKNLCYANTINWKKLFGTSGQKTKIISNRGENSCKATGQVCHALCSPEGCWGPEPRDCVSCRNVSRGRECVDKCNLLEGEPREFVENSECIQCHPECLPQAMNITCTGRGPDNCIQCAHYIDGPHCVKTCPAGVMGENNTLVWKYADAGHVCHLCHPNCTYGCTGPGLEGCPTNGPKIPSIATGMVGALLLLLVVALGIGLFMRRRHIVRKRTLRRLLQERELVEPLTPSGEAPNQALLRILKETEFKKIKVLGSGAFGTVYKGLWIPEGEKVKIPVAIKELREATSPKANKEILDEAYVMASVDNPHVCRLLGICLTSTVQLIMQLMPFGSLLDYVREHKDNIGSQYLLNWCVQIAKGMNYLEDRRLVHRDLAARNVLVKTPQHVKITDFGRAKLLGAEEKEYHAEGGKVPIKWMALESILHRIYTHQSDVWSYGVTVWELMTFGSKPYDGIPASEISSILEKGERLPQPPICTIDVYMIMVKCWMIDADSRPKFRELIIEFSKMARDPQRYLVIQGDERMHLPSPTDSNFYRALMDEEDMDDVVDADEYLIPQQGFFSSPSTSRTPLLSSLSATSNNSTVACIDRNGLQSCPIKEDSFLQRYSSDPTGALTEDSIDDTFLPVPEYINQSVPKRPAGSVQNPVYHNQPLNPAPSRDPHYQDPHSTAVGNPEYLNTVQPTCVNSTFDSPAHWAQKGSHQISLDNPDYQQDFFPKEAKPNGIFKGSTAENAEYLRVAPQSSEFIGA
# Method: as §1, §2
# EGFR del19/C797S = EGFR del19/C797S (Homo sapiens, UniProt P00533, C797S/DEL746-750); assay: Biochemical EGFR kinase assay (Lance Ultra TR-FRET), double mutant del19/C797S
# Method: as §1, §2
# EGFR L858R/C797S = EGFR L858R/C797S (Homo sapiens, UniProt P00533, C797S/L858R); assay: Biochemical EGFR kinase assay (Lance Ultra TR-FRET), double mutant L858R/C797S
# Sequence of EGFR L858R/C797S (P00533 25-1210 C797S/L858R): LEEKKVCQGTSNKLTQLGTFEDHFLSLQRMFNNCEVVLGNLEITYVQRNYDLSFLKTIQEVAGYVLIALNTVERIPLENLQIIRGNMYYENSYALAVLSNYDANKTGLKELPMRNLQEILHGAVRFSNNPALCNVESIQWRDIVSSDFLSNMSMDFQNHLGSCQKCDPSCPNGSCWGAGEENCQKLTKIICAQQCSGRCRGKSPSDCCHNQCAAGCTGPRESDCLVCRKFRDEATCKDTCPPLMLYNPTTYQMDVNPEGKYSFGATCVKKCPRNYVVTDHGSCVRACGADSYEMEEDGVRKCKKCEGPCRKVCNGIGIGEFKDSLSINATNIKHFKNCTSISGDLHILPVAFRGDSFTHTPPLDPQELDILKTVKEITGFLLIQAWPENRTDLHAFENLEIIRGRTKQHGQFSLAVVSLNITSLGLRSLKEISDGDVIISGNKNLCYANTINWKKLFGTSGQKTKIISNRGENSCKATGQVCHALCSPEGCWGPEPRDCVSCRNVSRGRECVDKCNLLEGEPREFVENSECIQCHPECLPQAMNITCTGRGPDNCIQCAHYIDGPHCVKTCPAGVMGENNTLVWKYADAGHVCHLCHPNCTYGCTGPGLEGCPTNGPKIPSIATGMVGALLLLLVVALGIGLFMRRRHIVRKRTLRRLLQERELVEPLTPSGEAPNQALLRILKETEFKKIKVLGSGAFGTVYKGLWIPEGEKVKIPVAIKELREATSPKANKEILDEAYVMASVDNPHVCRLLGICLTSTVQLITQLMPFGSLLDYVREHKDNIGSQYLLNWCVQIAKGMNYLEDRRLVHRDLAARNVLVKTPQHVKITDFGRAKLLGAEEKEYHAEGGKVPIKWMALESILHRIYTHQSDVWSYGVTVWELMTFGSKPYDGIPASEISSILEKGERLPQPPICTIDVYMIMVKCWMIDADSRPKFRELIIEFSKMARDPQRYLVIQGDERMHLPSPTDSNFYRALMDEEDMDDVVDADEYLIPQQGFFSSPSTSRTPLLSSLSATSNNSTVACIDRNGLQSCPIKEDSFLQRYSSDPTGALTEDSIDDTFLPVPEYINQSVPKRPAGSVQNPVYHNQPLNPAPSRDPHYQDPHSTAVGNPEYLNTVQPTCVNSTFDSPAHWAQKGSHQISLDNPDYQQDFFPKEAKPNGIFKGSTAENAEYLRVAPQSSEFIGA
# Method: as §1, §2
# EGFR wildtype = EGFR wildtype (Homo sapiens, UniProt P00533); assay: Biochemical EGFR kinase assay (Lance Ultra TR-FRET), wildtype
# Sequence of EGFR wildtype (P00533 25-1210): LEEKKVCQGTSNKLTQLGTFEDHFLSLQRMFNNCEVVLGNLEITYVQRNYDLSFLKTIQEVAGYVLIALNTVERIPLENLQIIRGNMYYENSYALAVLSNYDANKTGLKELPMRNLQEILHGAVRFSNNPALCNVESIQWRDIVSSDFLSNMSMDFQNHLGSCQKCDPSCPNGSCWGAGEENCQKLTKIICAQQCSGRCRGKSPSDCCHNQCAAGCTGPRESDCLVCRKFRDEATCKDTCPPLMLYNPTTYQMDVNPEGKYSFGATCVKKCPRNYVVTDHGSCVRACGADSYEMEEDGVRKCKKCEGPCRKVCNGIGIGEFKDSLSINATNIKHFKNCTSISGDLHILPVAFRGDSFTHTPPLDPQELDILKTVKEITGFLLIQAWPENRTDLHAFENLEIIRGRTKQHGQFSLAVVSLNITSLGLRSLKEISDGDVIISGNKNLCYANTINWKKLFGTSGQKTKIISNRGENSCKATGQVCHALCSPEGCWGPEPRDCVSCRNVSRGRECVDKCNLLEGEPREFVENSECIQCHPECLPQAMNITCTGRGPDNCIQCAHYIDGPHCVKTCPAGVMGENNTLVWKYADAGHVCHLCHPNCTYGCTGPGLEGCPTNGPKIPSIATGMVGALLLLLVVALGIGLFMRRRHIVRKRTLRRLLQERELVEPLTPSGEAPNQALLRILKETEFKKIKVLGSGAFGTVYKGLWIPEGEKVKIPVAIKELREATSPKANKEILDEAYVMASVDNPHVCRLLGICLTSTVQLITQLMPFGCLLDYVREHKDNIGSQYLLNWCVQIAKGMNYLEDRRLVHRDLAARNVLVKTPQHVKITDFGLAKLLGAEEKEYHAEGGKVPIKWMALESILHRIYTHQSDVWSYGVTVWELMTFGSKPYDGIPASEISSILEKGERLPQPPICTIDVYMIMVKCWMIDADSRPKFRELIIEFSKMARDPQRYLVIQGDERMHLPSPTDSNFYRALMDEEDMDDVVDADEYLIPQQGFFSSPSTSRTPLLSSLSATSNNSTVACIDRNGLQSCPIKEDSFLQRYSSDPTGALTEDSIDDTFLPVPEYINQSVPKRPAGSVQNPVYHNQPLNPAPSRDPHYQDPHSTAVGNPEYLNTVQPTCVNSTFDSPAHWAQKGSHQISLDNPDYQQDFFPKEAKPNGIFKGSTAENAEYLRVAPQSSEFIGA
# Method: as §1, §2
# [1] = IC50 del19/T790M/C797S (nM) 100 μM ATP, 100 μM ATP
# [2] = IC50 L858R/T790M/C797S (nM) 100 μM ATP, 100 μM ATP
# [3] = Km ATP, read-out: IC50 L858R/T790M/C797S (nM) Km ATP
# [4] = IC50 del19/C797S (nM) 100 μM ATP, 100 μM ATP
# [5] = Km ATP, read-out: IC50 del19/C797S (nM) Km ATP
# [6] = IC50 L858R/C797S (nM) 100 μM ATP, 100 μM ATP
# [7] = IC50 WT (nM) 100 μM ATP, 100 μM ATP
# [8] = Km ATP, read-out: IC50 WT (nM) Km ATP
# [9] = Km ATP, read-out: IC50 del19/T790M/C797S (nM) Km ATP
# [10] = Km ATP, read-out: IC50 L858R/C797S (nM) Km ATP
# Sequence of EGFR del19/T790M/C797S (P00533 with tags, fused parts or gaps DEL746-750/T790M/C797S): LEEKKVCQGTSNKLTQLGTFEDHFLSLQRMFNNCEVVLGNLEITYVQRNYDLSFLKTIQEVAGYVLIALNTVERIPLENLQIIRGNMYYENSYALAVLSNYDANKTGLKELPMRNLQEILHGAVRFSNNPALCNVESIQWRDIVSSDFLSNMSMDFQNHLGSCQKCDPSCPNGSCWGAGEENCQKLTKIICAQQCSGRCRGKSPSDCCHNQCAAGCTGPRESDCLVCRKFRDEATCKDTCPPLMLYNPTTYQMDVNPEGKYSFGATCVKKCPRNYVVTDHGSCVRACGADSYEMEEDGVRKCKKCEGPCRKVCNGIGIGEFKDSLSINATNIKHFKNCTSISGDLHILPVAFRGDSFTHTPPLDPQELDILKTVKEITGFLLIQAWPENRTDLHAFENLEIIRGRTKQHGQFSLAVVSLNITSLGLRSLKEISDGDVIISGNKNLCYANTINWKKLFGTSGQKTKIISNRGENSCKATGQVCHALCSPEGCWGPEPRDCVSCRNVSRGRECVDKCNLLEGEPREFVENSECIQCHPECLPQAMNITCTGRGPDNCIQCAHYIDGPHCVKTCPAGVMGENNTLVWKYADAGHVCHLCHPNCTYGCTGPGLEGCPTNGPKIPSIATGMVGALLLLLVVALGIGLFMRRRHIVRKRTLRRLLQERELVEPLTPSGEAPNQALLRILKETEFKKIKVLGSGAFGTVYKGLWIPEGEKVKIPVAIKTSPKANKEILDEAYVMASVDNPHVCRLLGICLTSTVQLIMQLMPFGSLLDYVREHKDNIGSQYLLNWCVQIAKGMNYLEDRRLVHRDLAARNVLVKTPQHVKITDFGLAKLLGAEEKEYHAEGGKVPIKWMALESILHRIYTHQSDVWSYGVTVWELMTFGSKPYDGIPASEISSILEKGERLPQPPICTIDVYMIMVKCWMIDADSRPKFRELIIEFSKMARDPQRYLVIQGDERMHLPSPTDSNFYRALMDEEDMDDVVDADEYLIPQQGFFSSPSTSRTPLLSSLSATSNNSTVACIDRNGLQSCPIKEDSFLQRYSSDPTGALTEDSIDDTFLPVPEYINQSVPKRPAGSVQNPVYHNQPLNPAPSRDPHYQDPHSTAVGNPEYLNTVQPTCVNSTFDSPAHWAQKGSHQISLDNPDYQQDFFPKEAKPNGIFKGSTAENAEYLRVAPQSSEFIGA
SMILES,IC50 (EGFR del19/T790M/C797S; [1]),IC50 (EGFR L858R/T790M/C797S; [2]),IC50 (EGFR L858R/T790M/C797S; [3]),IC50 (EGFR del19/C797S; [4]),IC50 (EGFR del19/C797S; [5]),IC50 (EGFR L858R/C797S; [6]),IC50 (EGFR wildtype; [7]),IC50 (EGFR wildtype; [8]),IC50 (EGFR del19/T790M/C797S; [9]),IC50 (EGFR L858R/C797S; [10])
"Cc1ccnc(-c2cnc(Nc3ccnc(-c4cnn(S(=O)(=O)C5CC5)c4)n3)cc2N[C@H]2CC[C@@](C)(O)CC2)c1 [Example 12, (1s,4s)-4-((6′-((2-(1-(Cyclopropylsulfonyl)-1H-pyrazol-4-yl)pyrimidin-4-yl)amino)-4-methyl-[2,3′-bipyridin]-4′-yl)amino)-1-methylcyclohexan-1-ol]",0.4 nM,0.6 nM,0.2 nM,1 nM,0.4 nM,11.5 nM,2690 nM,3.6 nM,,
"CC(=O)c1cccc(-c2cnc(Nc3ccnc(-c4cnn(S(=O)(=O)C5CC5)c4)n3)cc2N[C@H]2CC[C@@](C)(O)CC2)n1 [Example 18, 1-(6′-((2-(1-(Cyclopropylsulfonyl)-1H-pyrazol-4-yl)pyrimidin-4-yl)amino)-4′-(((1s,4s)-4-hydroxy-4-methylcyclohexyl)amino)-[2,3′-bipyridin]-6-yl)ethan-1-one]",0.7 nM,3.1 nM,,8.7 nM,,113 nM,> 10000 nM,,,
"O=S(=O)(C1CC1)n1cc(-c2nccc(Nc3cc(N[C@H]4CC[C@@H](NCCF)CC4)c(-c4ccc(CO)cn4)cn3)n2)cn1 [Example 21, (6′-((2-(1-(Cyclopropylsulfonyl)-1H-pyrazol-4-yl)pyrimidin-4-yl)amino)-4′-(((1s,4s)-4-((2-fluoroethyl)amino)cyclohexyl)amino)-[2,3′-bipyridin]-5-yl)methanol]",0.3 nM,0.6 nM,0.3 nM,1.2 nM,0.5 nM,11.6 nM,5570 nM,6.3 nM,0.3 nM,1 nM
"O=S(=O)(C1CC1)n1cc(-c2nccc(Nc3cc(N[C@H]4CC[C@@H](CO)CC4)c(-c4ccc(CO)cn4)cn3)n2)cn1 [Example 22, (6′-((2-(1-(Cyclopropylsulfonyl)-1H-pyrazol-4-yl)pyrimidin-4-yl)amino)-4′-(((1s,4s)-4-(hydroxymethyl)cyclohexyl)amino)-[2,3′-bipyridin]-5-yl)methanol]",0.3 nM,0.2 nM,0.2 nM,0.2 nM,0.1 nM,1.1 nM,165 nM,0.3 nM,0.3 nM,0.2 nM
"CC(O)c1cccc(-c2cnc(Nc3ccnc(-c4cnn(S(=O)(=O)C5CC5)c4)n3)cc2NC2CCC(C)(O)CC2)n1 (stereo not drawn) [Example 23, (1s,4s)-4-((6′-((2-(1-(Cyclopropylsulfonyl)-1H-pyrazol-4-yl)pyrimidin-4-yl)amino)-6-(1-hydroxyethyl)-[2,3′-bipyridin]-4′-yl)amino)-1-methylcyclohexan-1-ol]",1.1 nM,1 nM,,5 nM,1.8 nM,6.2 nM,> 10000 nM,13.7 nM,1.6 nM,0.6 nM
"CC(C)(O)[C@H]1CC[C@@H](Nc2cc(Nc3ccnc(-c4cnn(S(=O)(=O)C5CC5)c4)n3)ncc2-c2ccc(CO)cn2)CC1 [Example 24, 2-((1s,4s)-4-((6′-((2-(1-(Cyclopropylsulfonyl)-1H-pyrazol-4-yl)pyrimidin-4-yl)amino)-5-(hydroxymethyl)-[2,3′-bipyridin]-4′-yl)amino)cyclohexyl)propan-2-ol]",8.4 nM,0.9 nM,,2.2 nM,1 nM,3.5 nM,> 10000 nM,2.8 nM,1 nM,0.7 nM
"CC(C)(O)[C@H]1CC[C@@H](Nc2cc(Nc3ccnc(-c4cnn(S(=O)(=O)C5CC5)c4)n3)ncc2-c2ccc(CN3CCOCC3)cn2)CC1 [Example 25, 2-((1s,4s)-4-((6′-((2-(1-(Cyclopropylsulfonyl)-1H-pyrazol-4-yl)pyrimidin-4-yl)amino)-5-(morpholinomethyl)-[2,3′-bipyridin]-4′-yl)amino)cyclohexyl)propan-2-ol]",1.1 nM,1.2 nM,0.8 nM,0.5 nM,0.5 nM,2 nM,1830 nM,1.9 nM,1 nM,0.3 nM
"CN(C)Cc1ccc(-c2cnc(Nc3ccnc(-c4cnn(S(=O)(=O)C5CC5)c4)n3)cc2N[C@H]2CC[C@@H](C(C)(C)O)CC2)nc1 [Example 26, 2-((1s,4s)-4-((6′-((2-(1-(Cyclopropylsulfonyl)-1H-pyrazol-4-yl)pyrimidin-4-yl)amino)-5-((dimethylamino)methyl)-[2,3′-bipyridin]-4′-yl)amino)cyclohexyl)propan-2-ol]",0.4 nM,0.4 nM,0.2 nM,0.2 nM,0.2 nM,0.7 nM,107 nM,0.9 nM,0.4 nM,0.1 nM
"C[C@]1(O)CC[C@@H](Nc2cc(Nc3ccnc(-c4cnn(S(=O)(=O)C5CC5)c4)n3)ncc2-c2cccc(CO)n2)CC1 [Example 27, (1s,4s)-4-((6′-((2-(1-(Cyclopropylsulfonyl)-1H-pyrazol-4-yl)pyrimidin-4-yl)amino)-6-(hydroxymethyl)-[2,3′-bipyridin]-4′-yl)amino)-1-methylcyclohexan-1-ol]",0.3 nM,0.4 nM,0.2 nM,0.3 nM,0.1 nM,1.6 nM,370 nM,1.7 nM,0.3 nM,0.1 nM
"CN1CCN(Cc2cccc(-c3cnc(Nc4ccnc(-c5cnn(S(=O)(=O)C6CC6)c5)n4)cc3N[C@H]3CC[C@@](C)(O)CC3)n2)CC1 [Example 28, (1s,4s)-4-((6′-((2-(1-(Cyclopropylsulfonyl)-1H-pyrazol-4-yl)pyrimidin-4-yl)amino)-6-((4-methylpiperazin-1-yl)methyl)-[2,3′-bipyridin]-4′-yl)amino)-1-methylcyclohexan-1-ol]",0.1 nM,0.1 nM,,0.6 nM,,1.6 nM,1530 nM,,,
"C[C@]1(O)CC[C@@H](Nc2cc(Nc3ccnc(-c4cnn(S(=O)(=O)C5CC5)c4)n3)ncc2-c2cccc(CN3CCOCC3)n2)CC1 [Example 29, (1s,4s)-4-((6′-((2-(1-(Cyclopropylsulfonyl)-1H-pyrazol-4-yl)pyrimidin-4-yl)amino)-6-(morpholinomethyl)-[2,3′-bipyridin]-4′-yl)amino)-1-methylcyclohexan-1-ol]",0.2 nM,0.4 nM,,1.8 nM,,26.2 nM,> 10000 nM,,,
"CN(C)Cc1cccc(-c2cnc(Nc3ccnc(-c4cnn(S(=O)(=O)C5CC5)c4)n3)cc2N[C@H]2CC[C@@](C)(O)CC2)n1 [Example 30, (1s,4s)-4-((6′-((2-(1-(Cyclopropylsulfonyl)-1H-pyrazol-4-yl)pyrimidin-4-yl)amino)-6-((dimethylamino)methyl)-[2,3′-bipyridin]-4′-yl)amino)-1-methylcyclohexan-1-ol]",0.1 nM,0.1 nM,,0.4 nM,,2 nM,2910 nM,,,
